Experimental data published in PubChem BioAssay AID1963841 (Molecular Pharmacology Branch, DTP, NCI, 2024).

Test system: 439559-082-T-J2-PDC spheroid viability
Test: Anticancer human tumor 439559-082-T-J2-PDC patient-derived colon adenocarcinoma cell line growth inhibition [POLQ]
Settings: spheroids with HUVEC and MSC; for IC50: curve of first compound; for viability, T/C: stronger effect = lower value
Method in brief: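 Growth inhibition in 3D: complex spheroids (tumor PDC, HUVEC, MSC) treated with POLQ inhibitor combinations; where Cmax unknown, highest tested concentration 10 microM, except SN-38 at 1 microM.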

[1] = second compound 0.0316 µM, first compound 0.0316 µM
[2] = second compound 0.0316 µM, first compound 0.1 µM
[3] = second compound 0.0316 µM, first compound 0.316 µM
[4] = second compound 0.0316 µM, first compound 1 µM
[5] = second compound 0.1 µM, first compound 0.0316 µM
[6] = second compound 0.1 µM, first compound 0.1 µM
[7] = second compound 0.1 µM, first compound 0.316 µM
[8] = second compound 0.1 µM, first compound 1 µM
[9] = second compound 0.316 µM, first compound 0.0316 µM
[10] = second compound 0.316 µM, first compound 0.1 µM
[11] = second compound 0.316 µM, first compound 0.316 µM
[12] = second compound 0.316 µM, first compound 1 µM
[13] = second compound 1 µM, first compound 0.0316 µM
[14] = second compound 1 µM, first compound 0.1 µM
[15] = second compound 1 µM, first compound 0.316 µM
[16] = second compound 1 µM, first compound 1 µM
[17] = second compound 3.16 µM, first compound 0.0316 µM
[18] = second compound 3.16 µM, first compound 0.1 µM
[19] = second compound 3.16 µM, first compound 0.316 µM
[20] = second compound 3.16 µM, first compound 1 µM
[21] = second compound 10 µM, first compound 0.0316 µM
[22] = second compound 10 µM, first compound 0.1 µM
[23] = second compound 10 µM, first compound 0.316 µM
[24] = second compound 10 µM, first compound 1 µM
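Also: spheroids exposed to compounds for seven days before readout.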
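For viability, T/C in this document: 100% = DMSO vehicle control viability.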

## CCCS(=O)(=O)Nc1ccc(F)c(C(=O)c2c[nH]c3ncc(-c4ccc(Cl)cc4)cc23)c1F + Nc1ccc(C#CCN(C(=O)Cc2ncc(C(F)(F)F)cc2C(F)(F)F)c2ccc(F)cc2)nn1
Second compound 0.0316 µM
  IC50: 7.87 µM
Second compound 0.1 µM
  IC50: 7.94 µM
Second compound 0.316 µM
  IC50: 8.88 µM
Second compound 1 µM
  IC50: 8.43 µM
Second compound 3.16 µM
  IC50: 8.5 µM
Second compound 10 µM
  IC50: 8.29 µM
[1]
  viability, T/C: 66%
[2]
  viability, T/C: 72.5%
[3]
  viability, T/C: 94.9%
[4]
  viability, T/C: 90.5%
Second compound 0.0316 µM, first compound 3.16 µM
  viability, T/C: 78.2%
Second compound 0.0316 µM, first compound 10 µM
  viability, T/C: 42.5%
[5]
  viability, T/C: 79.8%
[6]
  viability, T/C: 64.4%
[7]
  viability, T/C: 92.4%
[8]
  viability, T/C: 98.2%
Second compound 0.1 µM, first compound 3.16 µM
  viability, T/C: 82%
Second compound 0.1 µM, first compound 10 µM
  viability, T/C: 41.9%
[9]
  viability, T/C: 65.4%
[10]
  viability, T/C: 77%
[11]
  viability, T/C: 93.4%
[12]
  viability, T/C: 103%
Second compound 0.316 µM, first compound 3.16 µM
  viability, T/C: 88.7%
Second compound 0.316 µM, first compound 10 µM
  viability, T/C: 45.9%
[13]
  viability, T/C: 52.6%
[14]
  viability, T/C: 68.7%
[15]
  viability, T/C: 95.9%
[16]
  viability, T/C: 107%
Second compound 1 µM, first compound 3.16 µM
  viability, T/C: 81%
Second compound 1 µM, first compound 10 µM
  viability, T/C: 44.6%
[17]
  viability, T/C: 61.6%
[18]
  viability, T/C: 66.6%
[19]
  viability, T/C: 103%
[20]
  viability, T/C: 99.6%
Second compound 3.16 µM, first compound 3.16 µM
  viability, T/C: 91.5%
Second compound 3.16 µM, first compound 10 µM
  viability, T/C: 44.3%
[21]
  viability, T/C: 60.9%
[22]
  viability, T/C: 69.3%
[23]
  viability, T/C: 89.4%
[24]
  viability, T/C: 104%
Second compound 10 µM, first compound 3.16 µM
  viability, T/C: 85.6%
Second compound 10 µM, first compound 10 µM
  viability, T/C: 43.8%

## CCc1c2c(nc3ccc(O)cc13)-c1cc3c(c(=O)n1C2)COC(=O)[C@]3(O)CC + Nc1ccc(C#CCN(C(=O)Cc2ncc(C(F)(F)F)cc2C(F)(F)F)c2ccc(F)cc2)nn1
Second compound 0.0316 µM
  IC50: > 1 µM
Second compound 0.1 µM
  IC50: > 1 µM
Second compound 0.316 µM
  IC50: > 1 µM
Second compound 1 µM
  IC50: > 1 µM
Second compound 3.16 µM
  IC50: 0.875 µM
Second compound 10 µM
  IC50: 0.84 µM
Second compound 0.0316 µM, first compound 0.00316 µM
  viability, T/C: 102%
Second compound 0.0316 µM, first compound 0.01 µM
  viability, T/C: 79.3%
[1]
  viability, T/C: 75.1%
[2]
  viability, T/C: 83.4%
[3]
  viability, T/C: 81.6%
[4]
  viability, T/C: 52.8%
Second compound 0.1 µM, first compound 0.00316 µM
  viability, T/C: 91.4%
Second compound 0.1 µM, first compound 0.01 µM
  viability, T/C: 79.4%
[5]
  viability, T/C: 71%
[6]
  viability, T/C: 73.1%
[7]
  viability, T/C: 75.7%
[8]
  viability, T/C: 55.1%
Second compound 0.316 µM, first compound 0.00316 µM
  viability, T/C: 88.5%
Second compound 0.316 µM, first compound 0.01 µM
  viability, T/C: 80.6%
[9]
  viability, T/C: 63.4%
[10]
  viability, T/C: 74.9%
[11]
  viability, T/C: 90.4%
[12]
  viability, T/C: 53.1%
Second compound 1 µM, first compound 0.00316 µM
  viability, T/C: 93.3%
Second compound 1 µM, first compound 0.01 µM
  viability, T/C: 81%
[13]
  viability, T/C: 75%
[14]
  viability, T/C: 68.2%
[15]
  viability, T/C: 86%
[16]
  viability, T/C: 50.6%
Second compound 3.16 µM, first compound 0.00316 µM
  viability, T/C: 87.5%
Second compound 3.16 µM, first compound 0.01 µM
  viability, T/C: 81.2%
[17]
  viability, T/C: 69.2%
[18]
  viability, T/C: 72.9%
[19]
  viability, T/C: 81.5%
[20]
  viability, T/C: 46.5%
Second compound 10 µM, first compound 0.00316 µM
  viability, T/C: 92.6%
Second compound 10 µM, first compound 0.01 µM
  viability, T/C: 74.4%
[21]
  viability, T/C: 76.8%
[22]
  viability, T/C: 73.9%
[23]
  viability, T/C: 80%
[24]
  viability, T/C: 44.8%
